The results in this text go back to patent US20040102454A1, “Phenylahistin and the phenylahistin analogs, a new class of anti-tumor compounds” (priority 1998, published 2004).

Each structure is given as a SMILES string. Where two headings read alike, the source gives them in different places.

The test system of test [1] is yeast strain Saccharomyces cerevisise HF7C. Briefly: Antimicrobial test, liquid culture medium dilution method. It counts as cell-based. How it is done:
Using colibacillus strain JM109 as a gram-negative bacterium, Bacillus natto as a […] and Aspergillus niger IFO6341 as a mold, the following antimicrobial test was conducted by the filter paper agar flat plate method, wherein 100 μg of specimen was placed on 9 mm filter paper, dried in air, and standard agar culture medium was used for bacteria and potato dextrose agar culture medium for mold. […] An antimicrobial test was further conducted by the liquid culture medium dilution method using the yeast strain Saccharomyces cerevisise HF7C.

Test [2] has as its system DMS114. Briefly: HCC panel assay, sulforhodamine B. It counts as cell-based. The conditions noted are these: DMS114, Lung, (−)-PLH content 24.1%. How it is done: (§1) The antitumor activity of PLH was evaluated by the Human Cancer Cell Line Panel (HCC panel) assay, see Yamori T., Jap. J Cancer Chemother., (1997), 24, 129-35. This HCC panel consists of 38 tumor cell lines including 7 lung cancer, 6 stomach, 6 colon, 5 ovary, 6 central nerve system, 5 breast, 2 kidney and 1 melanoma cell lines. Each tumor cell was seeded in 96-well tissue culture plates and incubated overnight. Various concentrations (5 doses; final 10^−4, 10^−5, 10^−6, 10^−7 and 10^−8 M) of PLH were added, and the cells were incubated for 48 hours. […] All mice were obtained from Japan SLC (Shizuoka, Japan), P388 leukemia cells were obtained from Dainippon Pharmaceuticals Inc. (Osaka, Japan), Lewis Lung Carcinoma from Riken Cell Bank (Tsukuba, Japan), and Colon 26 cells from the National Cancer Center, Japan (Tokyo, Japan).

Test [3] relates to MDA-MB-231. Briefly: HCC panel assay, sulforhodamine B. It counts as cell-based. The following applies: MDA-MB-231, Breast, (−)-PLH content 24.1%. Here is the method: as §1
In test [4] the test system is NCI-H522. The test is described as follows: HCC panel assay, sulforhodamine B. It counts as cell-based. The conditions noted are these: NCI-H522, Lung, (−)-PLH content 24.1%. Here is the method: as §1
Test [5] deals with OVCAR-3. Briefly: HCC panel assay, sulforhodamine B. It counts as cell-based. How it is done:
as §1

The test system of test [6] is OVCAR-8. The test is described as follows: HCC panel assay, sulforhodamine B. The following applies: OVCAR-8, Ovary, (−)-PLH content 24.1%. It counts as cell-based. Here is the method: as §1
Test [7] concerns SF-539. Briefly: HCC panel assay, sulforhodamine B. It counts as cell-based. The conditions noted are these: SF-539, CNS, (−)-PLH content 24.1%. How it is done: as §1
In test [8] the test system is P388 cells. The test is described as follows: P388 proliferation, Alamar Blue assay. It counts as cell-based, murine. The following applies: for IC50: Mus musculus. A general note: Resazurin is reduced to fluorescent resorufin, in cell work by metabolically active cells.
Test [9] concerns microtubules in A549 cells. Briefly: Immunofluorescence staining of microtubules. It counts as cell-based, human. The conditions noted are these: 6 hours incubation. Here is the method:
Immunocytochemical staining was performed using the method described by Yahara, I. et al., Cell (1978) 15, 251-259. A549 cells were cultured on glass coverslips and incubated with the test drug for 6 hours. The cells were then fixed with 3.7% formaldehyde for 30 min, permeabilized with 0.2% Triton X-100 for 5 min, and incubated with a mouse monoclonal antibody against α-tubulin (Calbiochem®, Oncogene Research Products, Cambridge, Mass.), followed by incubation with fluorescein isothiocyanate-conjugated goat anti-mouse IgG from Cosmo Bio Co., (Tokyo, Japan), and the cells were examined under an immunofluorescent microscope.

Test [10] has as its system C. albicans 10231. Briefly: Antifungal susceptibility testing, broth dilution (NCCLS M38-A). It counts as cell-based, Candida albicans. The following applies: Candida albicans; C. albicans 10231; 80% reduction in turbidity; read-out: MIC. How it is done: (§2) Antifungal susceptibility testing was accomplished according to the methods outlined in the National Committee for Clinical Laboratory Standards, M38-A “Reference Method for Broth Dilution Antifungal Susceptibility Testing of Conidium-Forming Filamentous Fungi; Approved Standard.” This includes testing in RPMI-1640 with glutamine and without bicarbonate, an inoculum size of 0.4-5×10^4, and incubation at 30 or 35° C. for 48 hours. […] Drug concentrations were 0.03-16 μg/ml for the investigational compounds, 0.015-8 μg/ml for itraconazole and griseofulvin.
(§3) The minimum lethal concentration (MLC) was determined by plating […] from the MIC concentration and each concentration above the MIC. […] When a MIC was obtained, a minimum fungicidal concentration (MFC) was determined to assess the fungistatic/fungicidal nature of the compound. […] The compound is scored as fungistatic if the cells are able to resume growth and fungicidal if no regrowth is possible because the compound had killed the organisms.
(In general: In broth dilution the organism is exposed to a series of concentrations in liquid medium.)

In test [11] the test system is C. albicans 90028. Described as above. It counts as cell-based, Candida albicans. The following applies: Candida albicans; C. albicans 90028; 80% reduction in turbidity; read-out: MIC. How it is done: as §2, §3
Where [12] appears, read: Homo sapiens, read-out: GL50 (the source's name).
Setting [13] is: Homo sapiens, read-out: LC50 (the source's name).

For `C=CC(C)(C)c1[nH]cnc1/C=C1\NC(=O)[C@H](Cc2ccccc2)NC1=O` (racemic) [PLH, phenylahistin], the antimicrobial activity entry in test [1] is listed as “no antimicrobial activity”. In addition, the TGI in [2] is 2400 nM; in test [3], 6000 nM; in test [4] it was 810 nM; in test [5] (OVCAR-3, Ovary, (−)-PLH content 24.1%) it was greater than 100000 nM; in test [6], 56000 nM; in test [7], 600 nM. The IC50 in test [2] (Homo sapiens, DMS-114, read-out: GL50 (the source's name)) was determined as 330 nM; in test [3] (setting [12]) it was 640 nM; in test [4] (setting [12]), 250 nM; in test [5] (Homo sapiens, OVCAR-3, Ovary, (−)-PLH content 24.1%, read-out: GL50 (the source's name)), 3000 nM; in test [6] (setting [12]) it was 520 nM; in [7] (setting [12]), 230 nM. Besides, the CC50 in test [2] (Homo sapiens, DMS-114, read-out: LC50 (the source's name)) is greater than 100000 nM; in test [3] (setting [13]), greater than 100000 nM; in test [4] (setting [13]) it was greater than 100000 nM; in [5] (Homo sapiens, OVCAR-3, read-out: LC50), greater than 100000 nM; in test [6] (setting [13]) it was greater than 100000 nM; in [7] (setting [13]), 11000 nM.
As for `C=CC(C)(C)c1[nH]cnc1/C=C1\NC(=O)[C@H](Cc2ccccc2)NC1=O` [(−)-phenylahistin], the “times more active than (+)-phenylahistin in anti-proliferative assays” value in [8] came to 50 times. Further, the IC50 in [8] (P388, read-out: IC50 P388 proliferation) is 210 nM; in [8] (P388, read-out: IC50 for P388 Proliferation) it was 210 nM. Also, the “times less active than colchicine, anti-proliferative activity” value in test [8] (P388) was “about 10 times”. Further, the “microtubule structure (anti α-tubulin staining)” value in test [9] is listed as “disappearance of the microtubule network”. The minimal inhibitory concentration (MIC) in test [10] and in [11] was greater than 70 µg/mL in each case.

The TGI is the concentration giving total growth inhibition. A lower TGI goes with more potent growth arrest. For orientation: MIC means the smallest concentration in the dilution series that meets the test's criterion for growth inhibition.
